{
  "source": "patent USRE45272E1",
  "about": "“β-glucuronide-linker drug conjugates” (priority 2005, dated 2014)",
  "assay_type_in_all_cases": "cell-based",
  "key": {"[1]": {"test_system": "786-O (CD70+, CD30−) renal cell carcinoma cells", "test": "In vitro growth inhibition (resazurin), 786-O", "procedure": "(§1) In vitro growth inhibition. Cells were collected and plated in 96 well black-sided plates at a density of 10,000 cells/well in 150 μL of medium. Serial dilutions of the ADC (50 μL) were added, and incubation was carried out for 92 h at 37° C. After addition of ADC, cultures were incubated to 96 h at 37° C. Resazurin (0.25 mM, 50 μL, Sigma, St. Louis, Mo.) in medium was added and incubation was continued for 4 h. The plates were read on a Fusion HT microplate reader (Packard, Meriden, Conn.) using an excitation wavelength of 525 nm and an emission wavelength of 590 nm. Data from all assays were reduced using GraphPad Prism Version 4 for Windows (GraphPad Software, San Diego, Calif.). The IC50 concentrations compared to untreated control cells were determined using a 4 parameter curve fits."}, "[2]": {"test_system": "Caki-1 (CD70+, CD30−) renal cell carcinoma cells", "test": "In vitro growth inhibition (resazurin), Caki-1", "procedure": "as §1"}, "[3]": {"test_system": "Karpas 299 (CD30+, CD70−) ALCL cells", "test": "In vitro growth inhibition (resazurin), Karpas 299", "procedure": "as §1"}, "[4]": {"test_system": "Caki-1, 786-O and Karpas 299 cell lines", "test": "In vitro cytotoxicity, statements across Caki-1, 786-O and Karpas 299", "details": "for IC50: read-out: IC50 on Caki-1, 786-O and Karpas 299 (all lines)", "procedure": "as §1\nResults. […] The negative charge associated with the carboxylate group of 1b leads to reduced cytotoxic activity, presumably due to impaired intracellular access.\nThe ADCs of 9b effectively delivered 1b to the targeted cells. […] Conjugates of doxorubicin drug-linker 17 gave the same general profile with effective cell kill on antigen positive cell lines and specificity values >16-fold."}, "[5]": {"details": "96 h exposure, resazurin metabolism, vs untreated cells, drug content, read-out: 786-O (CD70+, CD30−) IC50 drug"}, "[6]": {"details": "96 h exposure, resazurin metabolism, vs untreated cells, drug content, read-out: Caki-1 (CD70+, CD30−) IC50 drug"}, "[7]": {"details": "96 h exposure, resazurin metabolism, vs untreated cells, drug content, read-out: Karpas 299 (CD30+, CD70−) IC50 drug"}},
  "note": "Counter-ions that a name gives are not always drawn. Like-named read-outs stand apart in the source and are kept apart here. Square brackets hold non-standard residues; d marks the D form. Peptide text beside a SMILES is read from it. * marks the point of attachment. Dolaproine = CO[C@@H]([C@@H]1CCCN1)[C@@H](C)C(=O)O; Dil = CC[C@H](C)[C@H](NC)[C@@H](CC(=O)O)OC; X1 = C[C@@H](N*)[C@@H](O)c1ccccc1; NMeV = CN[C@H](C(=O)O)C(C)C",
  "data": [
    {"compound": "CC[C@H](C)[C@@H]([C@@H](CC(=O)N1CCC[C@H]1[C@H](OC)[C@@H](C)C(=O)N[C@H](C)[C@@H](O)c1ccccc1)OC)N(C)C(=O)[C@@H](NC(=O)[C@@H](NC)C(C)C)C(C)C", "note": "[Compound 1a, monomethyl auristatin E] (H-[NMeV]V[Dil][Dolaproine]-X1)", "values": [
      {"measurement": "IC50", "setting": "[1]; [5]", "value": 0.19, "unit": "nM"},
      {"measurement": "IC50", "setting": "[2]; [6]", "value": 0.11, "unit": "nM"},
      {"measurement": "IC50", "setting": "[3]; [7]", "value": 0.09, "unit": "nM"}
    ]},
    {"compound": "COc1cccc2c1C(=O)c1c(O)c3c(c(O)c1C2=O)C[C@@](O)(C(=O)CO)C[C@@H]3O[C@H]1C[C@H](N)[C@H](O)[C@H](C)O1", "note": "[Compound 15, doxorubicin-HCl]", "values": [
      {"measurement": "IC50", "setting": "[1]; Homo sapiens, 786-0, 96 h exposure, resazurin metabolism, vs untreated cells, drug content, read-out: 786-O (CD70+, CD30−) IC50 drug", "value": 65, "unit": "nM"},
      {"measurement": "IC50", "setting": "[2]; Homo sapiens, CAKI-1, 96 h exposure, resazurin metabolism, vs untreated cells, drug content, read-out: Caki-1 (CD70+, CD30−) IC50 drug", "value": 110, "unit": "nM"},
      {"measurement": "IC50", "setting": "[3]; Homo sapiens, KARPAS-299, 96 h exposure, resazurin metabolism, vs untreated cells, drug content, read-out: Karpas 299 (CD30+, CD70−) IC50 drug", "value": 29, "unit": "nM"}
    ]},
    {"compound": "COc1cccc2c1C(=O)c1c(O)c3c(c(O)c1C2=O)C[C@@](O)(C(=O)CO)CC3OC1CC(NCCCC(OC(C)=O)OC(C)=O)C(O)C(C)O1", "note": "(stereo partly drawn) [Compound 18]", "values": [
      {"measurement": "IC50", "setting": "[1]; Homo sapiens, 786-0, 96 h, read-out: 786-O (CD70+, CD30−) IC50 drug nM", "value": 0.01, "unit": "nM"},
      {"measurement": "IC50", "setting": "[2]; Homo sapiens, CAKI-1, 96 h, read-out: Caki-1 (CD70+, CD30−) IC50 drug nM", "value": 0.04, "unit": "nM"},
      {"measurement": "fold more cytotoxic than doxorubicin (15)", "setting": "[4]; across Caki-1, 786-O, Karpas 299", "value": "300-6500 fold"},
      {"measurement": "IC50", "setting": "[4]", "value": "< 0.2", "unit": "nM"},
      {"measurement": "IC50", "setting": "[3]; Homo sapiens, KARPAS-299, 96 h, read-out: Karpas 299 (CD30+, CD70−) IC50 drug nM", "value": 0.1, "unit": "nM"}
    ]},
    {"compound": "CC[C@H](C)[C@@H]([C@@H](CC(=O)N1CCC[C@H]1[C@H](OC)[C@@H](C)C(=O)N[C@@H](Cc1ccccc1)C(=O)O)OC)N(C)C(=O)[C@@H](NC(=O)[C@@H](NC)C(C)C)C(C)C", "note": "[Compound 1b, N-methylvaline-valine-dolaisoleuine-dolaproine-phenylalanine] (HELM PEPTIDE1{[meV].V.[CC[C@H](C)[C@@H]([C@@H](CC(=O)[*:2])OC)N(C)[*:1]].[CO[C@H]([C@@H](C)C(=O)[*:2])[C@@H]1CCCN1[*:1]].F}$$$$V2.0)", "values": [
      {"measurement": "IC50", "setting": "[1]; [5]", "value": 300, "unit": "nM"},
      {"measurement": "IC50", "setting": "[2]; [6]", "value": 270, "unit": "nM"},
      {"measurement": "IC50", "setting": "[4]; statement for all three cell lines", "value": "100 to 200", "unit": "nM"},
      {"measurement": "IC50", "setting": "[3]; [7]", "value": 100, "unit": "nM"}
    ]}
  ]
}
